# Measured values: PubChem BioAssay (NCI)
#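 Test compounds were applied to cells in 96-well plates for 48 hours at 5 doses. GI50: concentration for 50% inhibition of growth. The concentration for full growth arrest is given as TGI.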
# Tests used:
# Test in all cases: DTP human tumour cell line panel, 48 h
# [1] = system: A498 renal
# [2] = system: A549 NSCLC
# [3] = system: ACHN renal
# [4] = system: BT-549 breast
# [5] = system: CAKI-1 renal
# [6] = system: CCRF-CEM leukemia
# [7] = system: COLO 205 colon
# [8] = system: DU-145 prostate
# [9] = system: EKVX NSCLC
# [10] = system: HCC-2998 colon
# [11] = system: HCT-15 colon
# [12] = system: HL-60(TB) leukemia
# [13] = system: HOP-92 NSCLC
# [14] = system: HS 578T breast
# [15] = system: HT29 colon
# [16] = system: IGROV1 ovarian
# [17] = system: K-562 leukemia
# [18] = system: KM12 colon
# [19] = system: LOX IMVI melanoma
# [20] = system: MALME-3M melanoma
# [21] = system: MCF7 breast
# [22] = system: MDA-MB-231 breast
# [23] = system: MDA-MB-435
# [24] = system: NCI-H226 lung
# [25] = system: NCI-H23 lung
# [26] = system: NCI-H460 lung
# [27] = system: NCI-H522 lung
# [28] = system: NCI/ADR-RES ovarian
# [29] = system: OVCAR-3 ovarian
# [30] = system: OVCAR-4 ovarian
# [31] = system: OVCAR-5 ovarian
# [32] = system: OVCAR-8 ovarian
# [33] = system: PC-3 prostate
# [34] = system: RPMI-8226 leukemia
# [35] = system: RXF 393 renal
# [36] = system: SF-268 CNS
# [37] = system: SF-295 CNS
# [38] = system: SF-539 CNS
# [39] = system: SK-MEL-2 melanoma
# [40] = system: SK-MEL-28 melanoma
# [41] = system: SK-MEL-5 melanoma
# [42] = system: SK-OV-3 ovarian
# [43] = system: SN12C renal
# [44] = system: SNB-19 CNS
# [45] = system: SNB-75 CNS
# [46] = system: SW-620 colon
# [47] = system: T-47D breast
# [48] = system: TK-10 renal
# [49] = system: U251 CNS
# [50] = system: UACC-257 melanoma
# [51] = system: UACC-62 melanoma
# [52] = system: UO-31 renal
# [53] = system: 786-0 renal
# [54] = system: HCT-116 colon
# [55] = system: HOP-62 NSCLC
# [56] = system: MOLT-4 leukemia
smiles,measurement,setting,value
CCSc1nc(N2CCCCC2)c2cn[nH]c2n1,GI50,[1],10.5 µM
same,TGI,[1],41 µM
same,GI50,[2],50.5 µM
same,TGI,[2],> 100 µM
same,GI50,[3],41.2 µM
same,TGI,[3],> 100 µM
same,GI50,[4],20.1 µM
same,TGI,[4],77.5 µM
same,GI50,[5],19.8 µM
same,TGI,[5],59.7 µM
same,GI50,[6],34.7 µM
same,TGI,[6],> 100 µM
same,GI50,[7],21.3 µM
same,TGI,[7],56.8 µM
same,GI50,[8],18.4 µM
same,TGI,[8],75.5 µM
same,GI50,[9],16.1 µM
same,TGI,[9],> 100 µM
same,GI50,[10],42.6 µM
same,TGI,[10],> 100 µM
same,GI50,[11],> 100 µM
same,TGI,[11],> 100 µM
same,GI50,[12],27.4 µM
same,TGI,[12],> 100 µM
same,GI50,[13],18.1 µM
same,TGI,[13],> 100 µM
same,GI50,[14],32.7 µM
same,TGI,[14],> 100 µM
same,GI50,[15],66.3 µM
same,TGI,[15],> 100 µM
same,GI50,[16],47 µM
same,TGI,[16],> 100 µM
same,GI50,[17],38 µM
same,TGI,[17],> 100 µM
same,GI50,[18],29 µM
same,TGI,[18],> 100 µM
same,GI50,[19],55.2 µM
same,TGI,[19],> 100 µM
same,GI50,[20],37.1 µM
same,TGI,[20],97.5 µM
same,GI50,[21],22.8 µM
same,TGI,[21],71.7 µM
same,GI50,[22],11.6 µM
same,TGI,[22],> 100 µM
same,GI50,[23],28.8 µM
same,TGI,[23],75.6 µM
same,GI50,[24],15.3 µM
same,TGI,[24],51.3 µM
same,GI50,[25],93.2 µM
same,TGI,[25],> 100 µM
same,GI50,[26],20.4 µM
same,TGI,[26],76.5 µM
same,GI50,[27],30.7 µM
same,TGI,[27],> 100 µM
same,GI50,[28],92.5 µM
same,TGI,[28],> 100 µM
same,GI50,[29],27.9 µM
same,TGI,[29],> 100 µM
same,GI50,[30],88.3 µM
same,TGI,[30],> 100 µM
same,GI50,[31],88.7 µM
same,TGI,[31],> 100 µM
same,GI50,[32],43.6 µM
same,TGI,[32],> 100 µM
same,GI50,[33],20.7 µM
same,TGI,[33],79.1 µM
same,GI50,[34],28 µM
same,TGI,[34],> 100 µM
same,GI50,[35],24.5 µM
same,TGI,[35],92.4 µM
same,GI50,[36],23.6 µM
same,TGI,[36],65.8 µM
same,GI50,[37],48.2 µM
same,TGI,[37],> 100 µM
same,GI50,[38],12.4 µM
same,TGI,[38],48.3 µM
same,GI50,[39],39.8 µM
same,TGI,[39],> 100 µM
same,GI50,[40],57.6 µM
same,TGI,[40],> 100 µM
same,GI50,[41],16.6 µM
same,TGI,[41],32.8 µM
same,GI50,[42],> 100 µM
same,TGI,[42],> 100 µM
same,GI50,[43],25.7 µM
same,TGI,[43],> 100 µM
same,GI50,[44],45.6 µM
same,TGI,[44],> 100 µM
same,GI50,[45],74.9 µM
same,TGI,[45],> 100 µM
same,GI50,[46],40.1 µM
same,TGI,[46],> 100 µM
same,GI50,[47],16 µM
same,TGI,[47],62.4 µM
same,GI50,[48],36.8 µM
same,TGI,[48],> 100 µM
same,GI50,[49],88.3 µM
same,TGI,[49],> 100 µM
same,GI50,[50],58.7 µM
same,TGI,[50],> 100 µM
same,GI50,[51],18.8 µM
same,TGI,[51],47.1 µM
same,GI50,[52],34 µM
same,TGI,[52],> 100 µM
COc1cc(-n2cc(-c3ccc(F)cc3)[nH]c2=S)cc(OC)c1OC,GI50,[53],63.6 µM
same,TGI,[53],> 100 µM
same,GI50,[2],> 100 µM
same,TGI,[2],> 100 µM
same,GI50,[3],> 100 µM
same,TGI,[3],> 100 µM
same,GI50,[4],58 µM
same,TGI,[4],> 100 µM
same,GI50,[5],38.1 µM
same,TGI,[5],> 100 µM
same,GI50,[6],> 100 µM
same,TGI,[6],> 100 µM
same,GI50,[7],> 100 µM
same,TGI,[7],> 100 µM
same,GI50,[8],> 100 µM
same,TGI,[8],> 100 µM
same,GI50,[9],> 100 µM
same,TGI,[9],> 100 µM
same,GI50,[10],> 100 µM
same,TGI,[10],> 100 µM
same,GI50,[54],> 100 µM
same,TGI,[54],> 100 µM
same,GI50,[11],> 100 µM
same,TGI,[11],> 100 µM
same,GI50,[12],> 100 µM
same,TGI,[12],> 100 µM
same,GI50,[55],> 100 µM
same,TGI,[55],> 100 µM
same,GI50,[13],45.5 µM
same,TGI,[13],> 100 µM
same,GI50,[14],18.3 µM
same,TGI,[14],> 100 µM
same,GI50,[15],> 100 µM
same,TGI,[15],> 100 µM
same,GI50,[16],41.6 µM
same,TGI,[16],> 100 µM
same,GI50,[17],> 100 µM
same,TGI,[17],> 100 µM
same,GI50,[18],> 100 µM
same,TGI,[18],> 100 µM
same,GI50,[19],> 100 µM
same,TGI,[19],> 100 µM
same,GI50,[20],> 100 µM
same,TGI,[20],> 100 µM
same,GI50,[21],55.9 µM
same,TGI,[21],> 100 µM
same,GI50,[22],36.4 µM
same,TGI,[22],> 100 µM
same,GI50,[23],> 100 µM
same,TGI,[23],> 100 µM
same,GI50,[56],> 100 µM
same,TGI,[56],> 100 µM
same,GI50,[24],> 100 µM
same,TGI,[24],> 100 µM
same,GI50,[25],> 100 µM
same,TGI,[25],> 100 µM
same,GI50,[26],> 100 µM
same,TGI,[26],> 100 µM
same,GI50,[27],> 100 µM
same,TGI,[27],> 100 µM
same,GI50,[28],> 100 µM
same,TGI,[28],> 100 µM
same,GI50,[29],> 100 µM
same,TGI,[29],> 100 µM
same,GI50,[30],> 100 µM
same,TGI,[30],> 100 µM
same,GI50,[31],> 100 µM
same,TGI,[31],> 100 µM
same,GI50,[32],> 100 µM
same,TGI,[32],> 100 µM
same,GI50,[33],80.1 µM
same,TGI,[33],> 100 µM
same,GI50,[34],> 100 µM
same,TGI,[34],> 100 µM
same,GI50,[35],71.4 µM
same,TGI,[35],> 100 µM
same,GI50,[36],32.8 µM
same,TGI,[36],> 100 µM
same,GI50,[37],47 µM
same,TGI,[37],> 100 µM
same,GI50,[38],63.1 µM
same,TGI,[38],> 100 µM
same,GI50,[39],> 100 µM
same,TGI,[39],> 100 µM
same,GI50,[40],> 100 µM
same,TGI,[40],> 100 µM
same,GI50,[41],> 100 µM
same,TGI,[41],> 100 µM
same,GI50,[42],38.2 µM
same,TGI,[42],> 100 µM
same,GI50,[43],> 100 µM
same,TGI,[43],> 100 µM
same,GI50,[44],36.6 µM
same,TGI,[44],> 100 µM
same,GI50,[45],17.9 µM
same,TGI,[45],46.5 µM
same,GI50,[46],> 100 µM
same,TGI,[46],> 100 µM
same,GI50,[47],72.4 µM
same,TGI,[47],> 100 µM
same,GI50,[48],> 100 µM
same,TGI,[48],> 100 µM
same,GI50,[49],> 100 µM
same,TGI,[49],> 100 µM
same,GI50,[50],> 100 µM
same,TGI,[50],> 100 µM
same,GI50,[51],> 100 µM
same,TGI,[51],> 100 µM
same,GI50,[52],> 100 µM
same,TGI,[52],> 100 µM
